Source: patent US8415271B2, “Biofertilizer formulation” (priority 2007, dated 2013)

Test system: wheat
Assay: Field grown wheat, harvest parameters
Assay type: in vivo, Triticum aestivum
Conditions: seeds not coated
Protocol: Effect of the psychrorphilic biofertilizer was tested on field conditions on wheat cultivation in Victoria City, Temuco, Chile. Wheat seeds were disinfected and coated with the psychrophilic bacterial biofertilizer of the present invention as described in Example 3. Control seeds were disinfected and treated with water. A field of one hectare was directly sowed with the seeds using a random block experimental design with four repetitions per treatments. Further, total yield after the harvest was measured and the yield per unit area of the crop field was calculated.

O=P(=O)OP(=O)=O [Strain P2O5, P2O5]
Weight 1000 grains (50 Kg P2O5/ha): 33 ± 3 g
Yield (50 Kg P2O5/ha): 4.8 ± 0.5 ton/ha
Weight 1000 grains (100 Kg P2O5/ha): 37 ± 3 g
Yield (100 Kg P2O5/ha): 5.1 ± 0.3 ton/ha
Weight 1000 grains (150 Kg P2O5/ha): 35 ± 3 g
Yield (150 Kg P2O5/ha): 5.0 ± 0.4 ton/ha
